Reference: paper PMC10111420, “Optimization of Host Cell-Compatible, Antimicrobial Peptides Effective against Biofilms and Clinical Isolates of Drug-Resistant Bacteria” (ACS Infectious Diseases, 2023)
Converted amounts (≈) assume the structure as drawn. Read-outs that look alike come from different tables or passages of the source. Where a SMILES comes first, the peptide text is derived from it. Bridges are numbered along the chain shown (N, C = ends). [ ]: non-standard residue; d: D form.

Tests used:
[1] = test system: MRSA SAP400, a USA400 strain; assay: microbe, parasite or virus in culture; conditions: for MIC: Staphylococcus aureus, read-out: MIC, MRSA USA400
Protocol: (§1) Subcultures, prepared by inoculating 25 mL of fresh tryptic soy broth (TSB) with 200 μL of an overnight culture, were grown to log phase (OD600 = 0.3–0.6), after which cell counts were determined by measuring the OD600 (1.0 = 5 × 10^8 CFU/mL for E. coli, 4 × 10^8 CFU/mL for K. pneumoniae, 4 × 10^8 CFU/mL for P. aeruginosa, 1.5 × 10^8 CFU/mL for S. aureus). Bacterial cells were diluted to appropriate concentrations in TSB. We used the following clinical bacterial isolates of Klebsiella pneumoniae in this study: Strains KP6, KP46, NDM-1, KP396, and KP398 have been previously described.[43] ST58 strains C2, C3, and I2 are also described.[41] […] MRSA, […] S. aureus strain, is SAP400, a USA400 strain of community-acquired MRSA. […] The second independent set of K. pneumoniae isolates are previously described.[20],[21]
(§2) The antibiotics were serially diluted by a factor of 2:3 horizontally across 96-well plates from Corning, 25 μL per well. One column was reserved for controls. For the assays performed in the presence of RBC, type O+ human RBCs at 0 or 2.5 × 10^9 cells/mL were added in 50 μL aliquots to all wells. Following a 30-min incubation, 50 μL of TSB, inoculated with 5 × 10^5 CFU/mL, was added to all wells, and plates were incubated overnight at 37 °C. Following overnight incubation at 37 °C, the OD600 was measured (values of less than 0.1 were considered sterilized). To assess bacterial growth in the assays with RBC, the OD600 was measured after a second-day inoculation with 10 μL of solution from the original plate added to 100 μL of sterile TSB followed by overnight incubation.
(§3) Experiments were repeated four to eight times independently, with pairs of replicate measurements on each 96-well plate. After overnight growth, optical densities were measured at 660 nm and the sterilized wells were identified by having O.D. < 0.08. Nonsterilized wells were nearly opaque with OD > 0.6. For each measurement, we recorded the largest dilution that sterilized the bacteria. Statistics are done on dilution numbers, rather than calculated concentrations, because only the former have normal distributions.

[2] = test system: Pseudomonas aeruginosa clinical isolates; assay: microbe, parasite or virus in culture; conditions: for MIC: Pseudomonas aeruginosa
Protocol: as §1, §2, §3

[3] = test system: 14 clinical isolates of resistant bacterial strains; assay: Broth dilution, summary over the 14 clinical isolates of the first set; assay type: cell-based; conditions: statement for all 14 clinical isolates of the first set; read-out: MIC, all isolates (completely resistant)
Protocol: In Figure 4B, we plot the fraction of isolates sterilized as functions of antibiotic concentration.
as §1, §2

[4] = test system: Acinetobacter baumannii (PDR) Tulane isolate; assay: microbe, parasite or virus in culture; conditions: read-out: MIC, AB (PDR)Tulane
[5] = test system: K. pneumoniae clinical isolates; assay: microbe, parasite or virus in culture; conditions: for MIC: Klebsiella pneumoniae
Protocol: as §1
as §2, with “Following a 30-min incubation, 50 μL of TSB, inoculated with 5 × 10^5 CFU/mL, was added to all wells, and plates were incubated overnight at 37 °C. Following overnight incubation at 37 °C, the OD600 was measured (values of less than 0.1 were considered sterilized).” left out
as §3

[6] = test system: Escherichia coli (ATCC 25922)
Protocol: All peptide variants were synthesized and purified as described previously.[5],[7] They were tested in broth dilution in the presence and absence of 1 × 10^9 human RBCs per mL, 20% of the concentration in human blood, against Escherichia coli, K. pneumoniae, and Staphylococcus aureus. […] The toxicity of the variants was tested by measuring hemolysis as well as cytotoxicity against human WI-38 fibroblast cells.
as §1, §2, §3

human RBCs = assay type: cell-based
Protocol: Human O+ erythrocytes were obtained from Interstate Blood Bank, Inc. Red blood cells were subjected to four or more cycles of centrifugation at 1000g with resuspension in fresh PBS. Following the final wash step, the supernatant was clear and colorless. RBC concentration was determined using a standard hemocytometer.
Peptide was serially diluted in PBS starting at a concentration of 100 μM. The final volume of peptide in each well was 50 μL. To each well, 50 μL of RBCs in PBS at 2 × 10^8 cells/mL was added. As a positive lysis control, 1% Triton was used. The mixtures were incubated at 37 °C for 1 h, after which they were centrifuged at 1000g for 5 min. After centrifugation, 10 μL of supernatant was transferred to 90 μL of DI H2O in a fresh 96-well plate. The absorbance of released hemoglobin at 410 nm was recorded, and the fractional hemolysis was calculated based on the 100 and 0% lysis controls. At least three independent experiments were performed. Results shown are averages.

[7] = test system: WI-38 human fibroblast cells; assay: in vitro; assay type: cell-based
Protocol: The day before cytotoxicity experiments, the 10,000 cells/well were plated in a 96-well tissue-culture plate. […] To perform the cytotoxicity assay, media was removed from the wells and replaced with peptide solutions. […] The plate was read for SYTOX fluorescence every 5 min for an hour with an excitation wavelength of 504 nm and an emission wavelength of 523 nm. Percent cytotoxicity was calculated at 60 min using the 100 and 0% lysis controls. At least three independent experiments were averaged.

[8] = test system: Acinetobacter baumannii (PDR) Tulane isolate; conditions: broth dilution; at least three independent measurements, SE about 40%; highest concentration 150 μM
[9] = ATCC33495, read-out: MIC, KP ATCC 33495
[10] = broth dilution, at least three independent measurements, SE about 40%, highest concentration 150 μM

Molecule	MIC [1] [µM]	MIC ([2]; read-out: MIC, PA(mucoid)) [µM]	MIC ([2]; read-out: MIC, PA(non-mucoid)) [µM]	MIC [4] [µM]	MIC [5, 9] [µM]	MIC ([5]; read-out: MIC, KP 6) [µM]	MIC ([5]; read-out: MIC, KP 46) [µM]	MIC ([5]; read-out: MIC, KP 398) [µM]	MIC ([5]; read-out: MIC, KP 2146NDM-1) [µM]	MIC ([5]; read-out: MIC, KP (CRE)) [µM]	MIC ([5]; read-out: MIC, KP ST258 C2) [µM]	MIC ([5]; read-out: MIC, KP ST258 C3) [µM]	MIC ([5]; read-out: MIC, KP ST258 I2) [µM]	MIC ([5]; read-out: MIC, KP ST396) [µM]	MIC in Broth Dilution, E. coli [6] [µM]	Hemolysis at 100 μM (fractional hemolysis) (human RBCs)	other results
CC1(C)S[C@@H]2[C@H](NC(=O)[C@H](N)c3ccccc3)C(=O)N2[C@H]1C(=O)O [AMP, ampicillin]	> 150	> 150	> 150	> 150	–	–	–	–	–	–	–	–	–	–	–	–	MIC [3]: > 150 µM
CC(C)(O/N=C(\C(=O)N[C@@H]1C(=O)N2C(C(=O)[O-])=C(C[n+]3ccccc3)CS[C@H]12)c1csc(N)n1)C(=O)O [CAZ, ceftazidime]	> 150	116 (≈ 63.4 µg/mL)	> 150	> 150	> 150	> 150	> 150	133 (≈ 72.7 µg/mL)	> 150	> 150	> 150	> 150	> 150	> 150	–	–	MIC [3]: > 150 µM
O=C(O)c1cn(C2CC2)c2cc(N3CCNCC3)c(F)cc2c1=O [CIPRO, ciprofloxacin]	0.8 (≈ 0.265 µg/mL)	–	–	> 150	–	–	–	–	–	–	–	–	–	–	–	–	–
CO/N=C(\C(=O)N[C@@H]1C(=O)N2C(C(=O)O)=C(CSc3nc(=O)c(=O)[nH]n3C)CS[C@H]12)c1csc(N)n1 [CRO, ceftriaxone]	> 150	137 (≈ 76 µg/mL)	89 (≈ 49.4 µg/mL)	> 150	0.3 (≈ 0.166 µg/mL)	> 150	1.9 (≈ 1.05 µg/mL)	0.2 (≈ 0.111 µg/mL)	> 150	45 (≈ 25 µg/mL)	> 150	> 150	> 150	1.9 (≈ 1.05 µg/mL)	–	–	–
CC(C)C[C@H](NC(=O)[C@H](CCCNC(=N)N)NC(=O)[C@H](CCCNC(=N)N)NC(=O)[C@H](C)NC(=O)[C@H](Cc1c[nH]c2ccccc12)NC(=O)[C@H](CCCNC(=N)N)NC(=O)[C@H](N)CCCNC(=N)N)C(=O)N[C@@H](C)C(=O)N[C@@H](Cc1ccccc1)C(=O)N[C@@H](C)C(=O)N[C@@H](Cc1ccccc1)C(=O)N[C@@H](CCCNC(=N)N)C(=O)N[C@H](CCCNC(=N)N)C(N)=O [L-CONGA- (R1,R13)] (H-[dR]RWARRLAFAFR[dR]-NH2; N-terminus and C-terminus assumed)	–	–	–	–	–	–	–	–	–	–	–	–	–	–	26 (≈ 45.8 µg/mL)	0.01	EC50 [7]: 134 µM
CC(C)C[C@@H]1NC(=O)[C@H](CCCNC(=N)N)NC(=O)[C@H](CCCNC(=N)N)NC(=O)[C@H](C)NC(=O)[C@H](Cc2c[nH]c3ccccc23)NC(=O)[C@H](CCCNC(=N)N)NC(=O)[C@H](CCCNC(=N)N)NC(=O)CC[C@@H](C(N)=O)NC(=O)[C@H](CCCNC(=N)N)NC(=O)[C@H](CCCNC(=N)N)NC(=O)[C@H](Cc2ccccc2)NC(=O)[C@H](C)NC(=O)[C@H](Cc2ccccc2)NC(=O)[C@H](C)NC1=O [L-CONGA-E cycl.] (RRWARRLAFAFRRE-NH2; lactam N-14)	–	–	–	–	–	–	–	–	–	–	–	–	–	–	23 (≈ 43.1 µg/mL)	0.03	–
CC(C)C[C@@H]1NC(=O)[C@H](CCCNC(=N)N)NC(=O)[C@H](CCCNC(=N)N)NC(=O)[C@H](C)NC(=O)[C@H](Cc2c[nH]c3ccccc23)NC(=O)[C@H](CCCNC(=N)N)NC(=O)[C@H](CCCNC(=N)N)NC(=O)[C@H](CCCNC(=N)N)NC(=O)[C@H](CCCNC(=N)N)NC(=O)[C@H](Cc2ccccc2)NC(=O)[C@H](C)NC(=O)[C@H](Cc2ccccc2)NC(=O)[C@H](C)NC1=O [L-CONGA-OH cycl.] (cyclo(RRWARRLAFAFRR))	–	–	–	–	–	–	–	–	–	–	–	–	–	–	13 (≈ 22.7 µg/mL)	0.07	–
C[C@@H](O)[C@H]1C(=O)N2C(C(=O)O)=C(S[C@@H]3CN[C@H](C(=O)N(C)C)C3)[C@H](C)[C@H]12 [MEM, meropenem]	> 150	13.3 (≈ 5.1 µg/mL)	4 (≈ 1.53 µg/mL)	> 150	0.2 (≈ 0.0767 µg/mL)	0.2 (≈ 0.0767 µg/mL)	0.4 (≈ 0.153 µg/mL)	0.2 (≈ 0.0767 µg/mL)	> 150	108 (≈ 41.4 µg/mL)	> 150	> 150	> 150	0.3 (≈ 0.115 µg/mL)	–	–	–
NC[C@H]1O[C@H](O[C@H]2[C@H](O)[C@@H](O[C@H]3O[C@H](CO)[C@@H](O)[C@H](N)[C@H]3O)[C@H](N)C[C@@H]2N)[C@H](N)C[C@@H]1O [TOB, tobramycin]	> 150	4.2 (≈ 1.96 µg/mL)	5.9 (≈ 2.76 µg/mL)	> 150	7.5 (≈ 3.51 µg/mL)	> 150	3.5 (≈ 1.64 µg/mL)	6.9 (≈ 3.23 µg/mL)	> 150	> 150	> 150	> 150	> 150	4.6 (≈ 2.15 µg/mL)	–	–	–
gentamycin	–	–	–	–	–	–	–	–	–	–	–	–	–	–	–	–	MIC, KP 6 [5, 10]: > 150 µM; MIC, KP 46 [5, 10]: 1.6 µM; MIC, KP 398 [5, 10]: 1.9 µM; MIC, KP 2146NDM-1 [5, 10]: > 150 µM; MIC, KP (CRE) [5, 10]: 5.2 µM; MIC, KP ATCC 33495 [5, 10]: 1.9 µM; MIC, KP ST258 C2 [5, 10]: > 150 µM; MIC, KP ST258 C3 [5, 10]: > 150 µM; MIC, KP ST258 I2 [5, 10]: 8.3 µM; MIC, KP ST396 [5, 10]: 2.0 µM; MIC, MRSA USA400 [1, 10]: > 150 µM; MIC, PA(mucoid) [2, 10]: 5.5 µM; MIC, PA(non-mucoid) [2, 10]: 8.3 µM; MIC, AB (PDR)Tulane [8]: > 150 µM
